Experimental data from paper PMC7808747, “Design, synthesis, and in vitro evaluation of BP-1-102 analogs with modified hydrophobic fragments for STAT3 inhibition” (Journal of Enzyme Inhibition and Medicinal Chemistry, 2021).
“Also recorded” adds a separate entry of the source. Where two headings read alike, the source gives them in different places.

Columns and labels:
[1] = test system: mouse prostate TRAMP-C2 cancer cell line; assay: MTT cytotoxicity assay, TRAMP-C2; assay type: cell-based; details: for IC50: Mus musculus, read-out: IC50±SD TRAMP-C2; for cytotoxic effect in TRAMP-C2 (in words): 0–50 µM, 24 h
Protocol: (§1) Cells were seeded at the density of 2000 cells per well (96-well F microplates; Nunc, Roskilde, Denmark). The following day, the tested compounds were added. In the next 24 h, MTT (3-(4,5-dimethylthiazol-2-yl)-2,5-diphenyltetrazolium bromide) was added. After 6 h, DMF (dimethylformamide) was added, and after additional 24 h, absorbance was measured at 560 nm by a microplate reader.

RPE-1 = assay: Resazurin assay, RPE-1 (Table 2); assay type: cell-based; details: Homo sapiens, resazurin assay (footnote a), read-out: IC50±SD RPE-1
Protocol: The resazurin reduction assay[34] was performed as described previously[38]. Briefly, cells were seeded onto a 96-well plate (2000 cells per well) in hexaplicate and the following day treated with the tested compounds (dissolved in DMSO as 50 mM stock) in a concentration range as indicated. After 24 h, 200 μl of culture medium of each well was exchanged for 100 μl of resazurin (stock 30 mg/ml; Sigma, St. Louis, MO) diluted 10 times in the culture medium, and the cells were incubated at 37 °C for 1–3 h. Reading of fluorescence was done using an Envision reader (PerkinElmer, Waltham, MA). Absolute values of fluorescence were related to the values of control/untreated cells. To estimate the cytotoxic concentration (half maximal inhibitory concentration, IC50), log-scale data were processed in GraphPad Prism software (La Jolla, CA) using nonlinear fit curve.

TRAMP-C2 cells = assay: Annexin V / propidium iodide FACS, TRAMP-C2; assay type: cell-based, mouse; details: TRAMP-C2, 24 h
Protocol: (§6) Cells were harvested by centrifugation, resuspended in cold PBS and again centrifuged. Cell pellets were then resuspended in Annexin V Binding Buffer (ApoFlowEx FITC Kit, ED7044, Exbio, Vestec, Czech Republic), annexin V-APC and PI were added to the cell pellet and mixed. Cells were incubated in the dark at room temperature for 15 min. After the incubation, cells were centrifuged, resuspended in Annexin V Binding Buffer and analysed by flow cytometry. Five thousand cells per sample were measured by analysing annexin V and PI using a BD FACSVerse™ flow cytometer (BD Biosciences, Franklin Lakes, NJ). Data were analysed using FlowJo 10 software (FlowJo LLC, Ashland, OR), and the percentage of viable (annexin V-negative/PI-negative) cells relative to control was plotted.

[2] = test system: human breast cancer MDA-MB-231 cell line; assay: Resazurin cytotoxicity assay, MDA-MB-231; assay type: cell-based; details: for cytotoxic effect in MDA-MB-231 (in words): 0, 5, 10, 20, 50 µM
Protocol: (§2) The cells were treated with the compounds at concentrations 0, 5, 10, 20, and 50 µM for 24 h, and the cytotoxicity was estimated by the resazurin assay.
To estimate IC50 of 6 and 14, MDA-MB-231 cells were treated with 1 (0, 2, 5, 10, 15, 20, 25, 30, 40, and 50 µM), 6 (0, 5, 10, 20, 25, 30, 40, 50, 70, and 100 µM), and 14 (0, 20, 40, 50, 60, 70, 80, 100, 150, and 200 µM) for 24 h.
(§3) The resazurin reduction assay[34] was performed as described previously. Briefly, cells were seeded onto a 96-well plate (2000 cells per well) in hexaplicate and the following day treated with the tested compounds (dissolved in DMSO as 50 mM stock) in a concentration range as indicated. After 24 h, 200 μl of culture medium of each well was exchanged for 100 μl of resazurin (stock 30 mg/ml; Sigma, St. Louis, MO) diluted 10 times in the culture medium, and the cells were incubated at 37 °C for 1–3 h. Reading of fluorescence was done using an Envision reader (PerkinElmer, Waltham, MA). Absolute values of fluorescence were related to the values of control/untreated cells. To estimate the cytotoxic concentration (half maximal inhibitory concentration, IC50), log-scale data were processed in GraphPad Prism software (La Jolla, CA) using nonlinear fit curve.

MDA-MB-231 cells = assay: Annexin V / propidium iodide FACS, MDA-MB-231; assay type: cell-based, human; details: MDA-MB-231, 0, 5, 10, 20, 50 µM, 24 h
Protocol: as §6

TC-1 cells = assay: Annexin V / propidium iodide FACS, TC-1; details: TC-1, 24 h
Protocol: as §6

[3] = test system: STAT3 Y705 phosphorylation (pY705); assay: STAT3 pY705 immunoblotting, MDA-MB-231; assay type: cell-based, human; details: MDA-MB-231, micromolar concentration range, 4 h
Protocol: The cells were exposed to BP-1-102 (1), compounds 6 and 14 in a micromolar concentration range for 4 h, and then the levels of STAT3 pY705 and total STAT3 were probed by immunoblotting with specific antibodies. […] It can be concluded that both novel compounds 6 and 14 manifested inhibitory effects on receptor-mediated phosphorylation of Y705 of STAT3 in both human and mouse cell lines.
Cells were washed three times with PBS, harvested into 95 °C-heated Laemmli SDS sample lysis buffer (2% SDS, 50 mM Tris–Cl, 10% glycerol in double distilled H2O) and sonicated at 3 μm amplitude for 3 × 10 or 3 × 30 s with 10 or 30 s cooling intervals in a Soniprep 150 (MSE, London, UK) or Diagenode Bioruptor 300 (Diagenode, Liege, Belgium) for human and murine cell lines, respectively. Concentration of proteins was estimated by the Pierce^TM BCA Protein Assay (Thermo Scientific, Waltham, MA). DTT (100 mM) and 0.01% bromophenol blue were added to the lysates before separation by SDS-PAGE (10% gels were used). Equal protein amounts (40 or 35 μg for human or murine cell lines, respectively) were loaded into each well. Proteins were electrotransferred onto a nitrocellulose membrane (Amersham^TM Protran^TM 0.45 µm NC, GE Healthcare, Chalfont St Giles, UK) using wet transfer and detected by specific antibodies (at 4 °C overnight) combined with HRP-conjugated secondary antibodies. Peroxidase activity was detected by Amersham^TM ECL Western Blotting Detection Reagents (GE Healthcare, Chalfont St Giles, UK). GAPDH was used as a loading control.

[4] = test system: prostate carcinoma DU-145; assay: Resazurin cytotoxicity assay, DU-145; details: Homo sapiens, DU-145, read-out: IC50±SD DU-145
Protocol: (§4) Furthermore, the cytotoxicity of compound 6 was compared to BP-1-102 (1) in human glioblastoma cell lines U-87 and T98 in concentration range 0–80 µM for 24 h using the crystal violet assay.
as §3

[5] = test system: mouse lung TC-1 cancer cell line; assay: MTT cytotoxicity assay, TC-1; assay type: cell-based; details: for IC50: Mus musculus, read-out: IC50±SD TC-1; for cytotoxic effect in TC-1 (in words): 0–50 µM, 24 h
Protocol: as §1

[6] = test system: human breast adenocarcinoma MCF-7; assay: Resazurin cytotoxicity assay, MCF-7; details: Homo sapiens, MCF7, read-out: IC50±SD MCF-7
Protocol: as §4, §3

human glioblastoma U373 = assay: Crystal violet assay, U373; details: 0–50 µM, 24 h
Protocol: as §2
(§5) To determine cell viability by crystal violet assay, cells were seeded in 96-well plates at densities of 3000 (RPE-1), 5000 (U373 and T98-G), and 8000 (U-87 MG) cells per well. The next day the cells were treated with the tested compounds in triplicate in a concentration range as indicated. After 24 h, the cells in each well were washed twice with 150 µl PBS and then stained in 30 µl 0.5% w/v crystal violet in 20% methanol for 15 min. Plates were washed three times with double distilled H2O and left to dry overnight. Crystal violet was solubilised with 75 µl 0.2% Triton X-100 (Sigma, St. Louis, MO) in PBS for 15 min. Absorbance of crystal violet was measured at 595 nm using a microplate reader (Multiskan EX, Thermo Electron Corporation, Waltham, MA). Absorbance of the treated samples was expressed as a percentage of absorbance of untreated cells.

[7] = test system: human immortalised retinal pigment epithelium RPE-1; assay: Crystal violet assay, RPE-1; details: 0–50 µM, 24 h
Protocol: as §2, §5

[8] = test system: human glioblastoma cell line T98; assay: Crystal violet assay, T98; details: 0–80 µM, 24 h, compared to U-87 cells
Protocol: as §4, §5

[9] = Homo sapiens, MDA-MB-231, 24 h, resazurin assay, 24 h, read-out: IC50±SD MDA-MB-231

## CN(CC(=O)N(Cc1ccc(C2CCCCC2)cc1)c1ccc(C(=O)O)c(O)c1)S(=O)(=O)c1c(F)c(F)c(F)c(F)c1F [BP-1-102 (1), 4-(N-(4-Cyclohexylbenzyl)-2-(2,3,4,5,6-pentafluoro-N-methylphenylsulfonamido)acetamido)-2-hydroxybenzoic acid, reference compound]
[1]
  IC50: 7.9 ± 4.5 µM
RPE-1
  IC50: 13.9 ± 0.2 µM
TRAMP-C2 cells
  cytotoxicity by annexin V/PI staining and FACS: confirmed
[2]; Homo sapiens, MDA-MB-231, 24 h, read-out: IC50±SD MDA-MB-231, resazurin assay, 24 h
  IC50: 15 µM
[2]; read-out: IC50±SD MDA-MB-231, resazurin assay, 24 h
  IC50: 15 ± 3.7 µM
MDA-MB-231 cells
  cell death induction (annexin V/PI, FACS): cell death induction was confirmed
TC-1 cells
  cytotoxicity by annexin V/PI staining and FACS: confirmed
[3]
  inhibition of constitutive STAT3 Y705 phosphorylation: inhibited constitutive STAT3 phosphorylation
[4]
  IC50: 18 ± 8.3 µM
[5]
  IC50: 7.8 ± 1.1 µM

## Cc1ccc(S(=O)(=O)N(C)CC(=O)N(Cc2ccccc2)c2ccc(C(=O)O)c(O)c2)cc1 [Compound 3, 4-(N-(Benzyl)-2-(N-methyl-N-(p-toluenesulfonyl))acetamido)-2-hydroxybenzoic acid]
[2]; 24 h, resazurin assay
  cytotoxic effect in MDA-MB-231 (in words): lacking any significant cytotoxicity; also recorded: complete loss of cytotoxic activity

## CN(CC(=O)N(Cc1ccccc1)c1ccc(C(=O)O)c(O)c1)S(=O)(=O)c1c(F)c(F)c(F)c(F)c1F [Compound 4, 4-(N-(Benzyl)-2-(2,3,4,5,6-pentafluoro-N-methylphenylsulfonamido)acetamido)-2-hydroxybenzoic acid]
RPE-1
  IC50: > 50 µM
[6]
  IC50: > 50 µM
[2]; 24 h, resazurin assay
  cytotoxic effect in MDA-MB-231 (in words): mild-to-negligible cytotoxicity
[2]; [9]
  IC50: > 50 µM
[4]
  IC50: > 50 µM

## Cc1ccc(S(=O)(=O)N(C)CC(=O)N(Cc2ccc(C(C)(C)C)cc2)c2ccc(C(=O)O)c(O)c2)cc1 [Compound 5, 4-(N-(4-tert-Butylbenzyl)-2-(N-methyl-N-(p-toluenesulfonyl))acetamido)-2-hydroxybenzoic acid]
[2]; 24 h, resazurin assay
  cytotoxic effect in MDA-MB-231 (in words): mild-to-negligible cytotoxicity; also recorded: complete loss of cytotoxic activity

## CN(CC(=O)N(Cc1ccc(C(C)(C)C)cc1)c1ccc(C(=O)O)c(O)c1)S(=O)(=O)c1c(F)c(F)c(F)c(F)c1F [Compound 6, 4-(N-(4-tert-Butylbenzyl)-2-(2,3,4,5,6-pentafluoro-N-methylphenylsulfonamido)acetamido)-2-hydroxybenzoic acid]
[1]; MTT assay
  cytotoxic effect in TRAMP-C2 (in words): cytotoxic activity comparable to BP-1-102 (1)
  IC50: 14.5 ± 13.4 µM
RPE-1
  IC50: 24.5 ± 2.6 µM
TRAMP-C2 cells
  cytotoxicity by annexin V/PI staining and FACS: confirmed
Human glioblastoma U373
  cytotoxic activity in U373 (in words): concentration-dependent cytotoxic activity
[6]
  IC50: 19.6 ± 3.6 µM
[2]; [9]
  IC50: 26.2 µM
[2]; MDA-MB-231, 24 h, resazurin assay
  concentration from which the compound was cytotoxic: 10 µM
[2]; resazurin assay, 24 h, read-out: IC50±SD MDA-MB-231
  IC50: 26.2 ± 5.6 µM
MDA-MB-231 cells
  cell death induction (annexin V/PI, FACS): cell death induction was confirmed
TC-1 cells
  cytotoxicity by annexin V/PI staining and FACS: confirmed
[7]
  cytotoxic activity in RPE-1 (in words): concentration-dependent cytotoxic activity
[3]
  inhibition of constitutive STAT3 Y705 phosphorylation: inhibited constitutive STAT3 phosphorylation
[4]
  IC50: 34 ± 2.6 µM
[8]
  cytotoxicity in T98 (in words): remarkable resistance
[5]
  cytotoxic effect in TC-1 (in words): cytotoxic activity comparable to BP-1-102 (1)
  IC50: 6.2 ± 1.1 µM

## COc1ccc(CN(C(=O)CN(C)S(=O)(=O)c2c(F)cc(F)cc2F)c2ccc(C(=O)O)c(O)c2)cc1 [Compound 7, 4-(N-(4-Methoxybenzyl)-2-(2,4,6-trifluoro-N-methylphenylsulfonamido)acetamido)-2-hydroxybenzoic acid]
[2]; 24 h, resazurin assay
  cytotoxic effect in MDA-MB-231 (in words): lacking any significant cytotoxicity; also recorded: complete loss of cytotoxic activity

## COc1ccc(CN(C(=O)CN(C)S(=O)(=O)c2c(F)c(F)c(F)c(F)c2F)c2ccc(C(=O)O)c(O)c2)cc1 [Compound 8, 4-(N-(4-Methoxybenzyl)-2-(2,3,4,5,6-pentafluoro-N-methylphenylsulfonamido)acetamido)-2-hydroxybenzoic acid]
[1]; MTT assay
  cytotoxic effect in TRAMP-C2 (in words): mild cytotoxic effect; also recorded: mild cytotoxicity
Human glioblastoma U373
  cytotoxic activity in U373 (in words): no cytotoxic activity
[2]; 24 h, resazurin assay
  cytotoxic effect in MDA-MB-231 (in words): lacking any significant cytotoxicity; also recorded: no cytotoxic activity
[5]
  cytotoxic effect in TC-1 (in words): mild cytotoxic effect; also recorded: mild cytotoxicity

## CN(CC(=O)N(Cc1ccc(C(F)(F)F)cc1)c1ccc(C(=O)O)c(O)c1)S(=O)(=O)c1ccccc1 [Compound 9, 4-(N-(4-Trifluoromethylbenzyl)-2-(N-methylphenylsulfonyl)acetamido)-2-hydroxybenzoic acid]
[2]; 24 h, resazurin assay
  cytotoxic effect in MDA-MB-231 (in words): complete loss of cytotoxic activity
